Biological target: GST tagged truncated human mutant G2019S LRRK2 (Homo sapiens (Human), UniProt Q5S007, G2019S)
Assay: LRRK2 Km ATP LanthaScreen Assay
Type: biochemical
Conditions: G2019S LRRK2, 134 μM ATP (Km ATP), mean values
Procedure, shortened: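 Enzyme (GST-tagged, truncated) was preincubated with compound for 15 min at RT in 50 mM Tris pH 8.5, 10 mM MgCl2, 0.01% Brij-35, 1 mM EGTA, 2 mM DTT and 0.05 mM orthovanadate. Fluorescein-LRRKtide and 134 μM ATP (Km) were then added for 90 min. EDTA and Tb-anti-pERM antibody stopped the reaction; the TR-FRET 520/495 ratio gave 4-parameter IC50s, reported as mean pIC50.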

Sequence of GST tagged truncated human mutant G2019S LRRK2 (Q5S007 970-2527 G2019S): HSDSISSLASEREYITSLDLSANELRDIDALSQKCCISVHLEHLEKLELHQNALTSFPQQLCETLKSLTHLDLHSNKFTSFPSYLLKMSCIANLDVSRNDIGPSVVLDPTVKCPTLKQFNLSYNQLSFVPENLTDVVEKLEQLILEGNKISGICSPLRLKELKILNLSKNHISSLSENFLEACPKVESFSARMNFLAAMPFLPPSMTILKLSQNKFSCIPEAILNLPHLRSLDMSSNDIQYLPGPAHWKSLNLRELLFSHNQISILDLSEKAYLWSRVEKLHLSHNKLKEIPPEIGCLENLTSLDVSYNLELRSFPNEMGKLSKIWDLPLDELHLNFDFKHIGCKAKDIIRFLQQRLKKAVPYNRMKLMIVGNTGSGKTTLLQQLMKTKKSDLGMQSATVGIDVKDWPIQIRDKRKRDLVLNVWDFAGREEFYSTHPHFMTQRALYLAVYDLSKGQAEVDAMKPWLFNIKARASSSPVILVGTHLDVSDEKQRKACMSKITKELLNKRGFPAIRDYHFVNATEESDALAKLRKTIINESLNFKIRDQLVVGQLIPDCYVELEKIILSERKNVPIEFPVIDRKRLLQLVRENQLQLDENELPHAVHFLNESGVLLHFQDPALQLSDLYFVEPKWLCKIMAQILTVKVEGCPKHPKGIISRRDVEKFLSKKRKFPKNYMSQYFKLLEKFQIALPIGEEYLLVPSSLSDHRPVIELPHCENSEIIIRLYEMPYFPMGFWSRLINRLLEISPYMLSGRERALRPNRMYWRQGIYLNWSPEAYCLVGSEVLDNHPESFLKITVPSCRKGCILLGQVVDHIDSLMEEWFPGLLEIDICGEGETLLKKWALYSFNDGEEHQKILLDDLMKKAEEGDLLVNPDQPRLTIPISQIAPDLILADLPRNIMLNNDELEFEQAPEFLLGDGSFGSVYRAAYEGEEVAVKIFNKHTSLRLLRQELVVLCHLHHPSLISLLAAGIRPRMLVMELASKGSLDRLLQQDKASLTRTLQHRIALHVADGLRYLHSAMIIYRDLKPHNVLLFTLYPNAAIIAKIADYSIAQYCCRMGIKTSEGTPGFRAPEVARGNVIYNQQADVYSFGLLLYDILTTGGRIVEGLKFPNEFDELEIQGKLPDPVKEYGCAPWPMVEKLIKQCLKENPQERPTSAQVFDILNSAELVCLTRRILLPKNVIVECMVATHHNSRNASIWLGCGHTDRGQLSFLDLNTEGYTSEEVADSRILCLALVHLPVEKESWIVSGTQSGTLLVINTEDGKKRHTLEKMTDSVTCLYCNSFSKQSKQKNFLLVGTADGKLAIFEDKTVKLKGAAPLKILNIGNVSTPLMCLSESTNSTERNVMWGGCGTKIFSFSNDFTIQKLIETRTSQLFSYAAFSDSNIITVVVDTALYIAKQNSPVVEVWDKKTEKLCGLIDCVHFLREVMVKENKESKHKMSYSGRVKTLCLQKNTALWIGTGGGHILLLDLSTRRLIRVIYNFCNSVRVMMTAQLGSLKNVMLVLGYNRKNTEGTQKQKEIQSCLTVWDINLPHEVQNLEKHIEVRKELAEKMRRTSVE

Row | Compound | LRRK2 pIC50
1 | Cc1c(Nc2ncc3cc(Cl)c(C4CCN(C5COC5)CC4)cc3n2)cnn1CC1(C#N)CC1 [Ex-2.15, 1-{[4-({6-chloro-7-[1-(oxetan-3-yl)piperidin-4-yl]quinazolin-2-yl}amino)-5-methyl-1H-pyrazol-1-yl]methyl}cyclopropane-1-carbonitrile] | >9.20
2 | COC(C)(C)Cn1cc(Nc2ncc3cc(Cl)c(C4CCN(C5COC5)CC4)cc3n2)c(C)n1 [Ex-2.16, 6-chloro-N-[1-(2-methoxy-2-methylpropyl)-3-methyl-1H-pyrazol-4-yl]-7-[1-(oxetan-3-yl)piperidin-4-yl]quinazolin-2-amine] | 8.94
3 | Cc1nn(CC2(C#N)CC2)cc1Nc1ncc2cc(Cl)c(C3CCN(C4COC4)CC3)cc2n1 [Ex-2.17, 1-{[4-({6-chloro-7-[1-(oxetan-3-yl)piperidin-4-yl]quinazolin-2-yl}amino)-3-methyl-1H-pyrazol-1-yl]methyl}cyclopropane-1-carbonitrile] | >9.20
4 | Cc1c(Nc2ncc3cc(Cl)c(C4CCN(C5COC5)CC4)cc3n2)cnn1C(C)(C)C#N [Ex-2.19, 2-[4-({6-chloro-7-[1-(oxetan-3-yl)piperidin-4-yl]quinazolin-2-yl}amino)-5-methyl-1H-pyrazol-1-yl]-2-methylpropanenitrile] | >9.20
5 | Cc1c(Nc2ncc3cc(Cl)c(C4CCN(C5(C)COC5)CC4)cc3n2)cnn1C(C)(C)C#N [Ex-2.20, 2-[4-({6-chloro-7-[1-(3-methyloxetan-3-yl)piperidin-4-yl]quinazolin-2-yl}amino)-5-methyl-1H-pyrazol-1-yl]-2-methylpropanenitrile] | >9.20
6 | Cc1c(Nc2ncc3cc(Cl)c(C4CCN(C5(C)COC5)CC4)cc3n2)cnn1C12CC(C1)C2 [Ex-2.22, N-[1-(bicyclo[1.1.1]pentan-1-yl)-5-methyl-1H-pyrazol-4-yl]-6-chloro-7-[1-(3-methyloxetan-3-yl)piperidin-4-yl]quinazolin-2-amine] | >9.20
7 | COCC12CC(n3ncc(Nc4ncc5cc(Cl)c(C6CCN(C7COC7)CC6)cc5n4)c3C)(C1)C2 [Ex-2.31, 6-chloro-N-{1-[3-(methoxymethyl)bicyclo[1.1.1]pentan-1-yl]-5-methyl-1H-pyrazol-4-yl}-7-[1-(oxetan-3-yl)piperidin-4-yl]quinazolin-2-amine] | >9.20
8 | OC1COCC1n1ncc(Nc2ncc3cc(Cl)c(C4CCN(C5COC5)CC4)cc3n2)c1Cl (stereo not shown) [Ex-2.48, 4-[5-chloro-4-({6-chloro-7-[1-(oxetan-3-yl)piperidin-4-yl]quinazolin-2-yl}amino)-1H-pyrazol-1-yl]oxolan-3-ol] | 8.77
9 | COC(C)(C)C12CC(n3cc(Nc4ncc5cc(Cl)c(C6CCN(C7(C)COC7)CC6)cc5n4)cn3)(C1)C2 [Ex-2.56, 6-chloro-N-{1-[3-(2-methoxypropan-2-yl)bicyclo[1.1.1]pentan-1-yl]-1H-pyrazol-4-yl}-7-[1-(3-methyloxetan-3-yl)piperidin-4-yl]quinazolin-2-amine] | 8.75
10 | CC1(N2CCC(c3cc4nc(Nc5cnn(C67CC(CO)(C6)C7)c5)ncc4cc3Cl)CC2)COC1 [Ex-2.57, {3-[4-({6-chloro-7-[1-(3-methyloxetan-3-yl)piperidin-4-yl]quinazolin-2-yl}amino)-1H-pyrazol-1-yl]bicyclo[1.1.1]pentan-1-yl}methanol] | >9.20
11 | CC1(N2CCC(c3cc4nc(Nc5cnn(C67CC(C(C)(C)O)(C6)C7)c5)ncc4cc3Cl)CC2)COC1 [Ex-2.58, 2-{3-[4-({6-chloro-7-[1-(3-methyloxetan-3-yl)piperidin-4-yl]quinazolin-2-yl}amino)-1H-pyrazol-1-yl]bicyclo[1.1.1]pentan-1-yl}propan-2-ol] | 9.17
12 | CN(C)CC12CC(n3cc(Nc4ncc5cc(Cl)c(C6CCN(C7(C)COC7)CC6)cc5n4)cn3)(C1)C2 [Ex-2.59, 6-chloro-N-(1-{3-[(dimethylamino)methyl]bicyclo [1.1.1]pentan-1-yl}-1H-pyrazol-4-yl)-7-[1-(3-methyloxetan-3-yl)piperidin-4-yl]quinazolin-2-amine] | >9.20
13 | CC1(N2CCC(c3cc4nc(Nc5cnn(C67CC(CN8CC(F)(F)C8)(C6)C7)c5)ncc4cc3Cl)CC2)COC1 [Ex-2.60, 6-chloro-N-(1-{3-[(3,3-difluoroazetidin-1-yl)methyl]bicyclo[1.1.1]pentan-1-yl}-1H-pyrazol-4-yl)-7-[1-(3-methyloxetan-3-yl)piperidin-4-yl]quinazolin-2-amine] | >9.20
14 | Cc1nn(CC(C)(C)O)cc1Nc1ncc2cc(Cl)c(C3CCN(C4COC4)CC3)cc2n1 [Ex-2.61, 1-[4-({6-chloro-7-[1-(oxetan-3-yl)piperidin-4-yl]quinazolin-2-yl}amino)-3-methyl-1H-pyrazol-1-yl]-2-methylpropan-2-ol] | 8.66
15 | Cn1nc(C2CC2)cc1Nc1ncc2cc(Cl)c(C3CCN(C4COC4)CC3)cc2n1 [Ex-2.62, 6-chloro-N-(3-cyclopropyl-1-methyl-1H-pyrazol-5-yl)-7-[1-(oxetan-3-yl)piperidin-4-yl]quinazolin-2-amine] | 7.88
16 | Cc1c(Nc2ncc3cc(Cl)c(C4CCC(C)(O)CC4)cc3n2)cnn1C1CC1 (stereo not drawn) [Ex-2.63, cis- or trans-4-{6-chloro-2-[(1-cyclopropyl-5-methyl-1H-pyrazol-4-yl)amino]quinazolin-7-yl}-1-methylcyclohexan-1-ol] | 8.92
17 | Cc1cc2cnc(Nc3cnn(C4CC4)c3Cl)nc2cc1C1CCC(C)(O)CC1 (stereo not drawn) [Ex-2.64, cis- or trans-4-{2-[(5-chloro-1-cyclopropyl-1H-pyrazol-4-yl)amino]-6-methylquinazolin-7-yl}-1-methylcyclohexan-1-ol] | 9.02
18 | [2H]C([2H])([2H])n1ncc(Nc2ncc3cc(Cl)c(C4CCN(C5(C)COC5)CC4)cc3n2)c1Cl [Ex-2.72, 6-chloro-N-(5-chloro-1-(methyl-d3)-1H-pyrazol-4-yl)-7-(1-(3-methyloxetan-3-yl)piperidin-4-yl)quinazolin-2-amine] | 8.90
19 | CC(C)(O)Cn1ncc(Nc2ncc3cc(Cl)c(C4CCN(C5COC5)CC4)cc3n2)c1Cl [Ex-4.3, 1-(5-chloro-4-((6-chloro-7-(1-(oxetan-3-yl)piperidin-4-yl)quinazolin-2-yl)amino)-1H-pyrazol-1-yl)-2-methylpropan-2-ol] | >9.20
20 | CC1(n2ncc(Nc3ncc4cc(Cl)c(C5CCN(C(F)(F)F)CC5)cc4n3)c2Cl)CC1 [Ex-4.7, 6-chloro-N-(5-chloro-1-(1-methylcyclopropyl)-1H-pyrazol-4-yl)-7-(1-(trifluoromethyl)piperidin-4-yl)quinazolin-2-amine] | 7.74
21 | CC(=O)N1CCC(c2cc3nc(Nc4cnn(C5CC5)c4Cl)ncc3cc2Cl)C[C@@H]1C (stereo partly shown) [Ex-4.8] | 7.39
22 | O=S1(=O)CC(N2CCC(c3cc4nc(Nc5cnn(CC(F)F)c5Cl)ncc4cc3Cl)CC2)C1 [Ex-4.14, 3-(4-(6-chloro-2-((5-chloro-1-(2,2-difluoroethyl)-1H-pyrazol-4-yl)amino)quinazolin-7-yl)piperidin-1-yl)thietane 1,1-dioxide] | >9.20
23 | Clc1cc2cnc(Nc3cnn(C4CCC4)c3Cl)nc2cc1C1CCN(C2COC2)CC1 [Ex-4.15, 6-chloro-N-(5-chloro-1-cyclobutyl-1H-pyrazol-4-yl)-7-[1-(oxetan-3-yl)piperidin-4-yl]quinazolin-2-amine] | >9.20
24 | Clc1cc2cnc(Nc3cnn(CC4CC4)c3Cl)nc2cc1C1CCN(C2COC2)CC1 [Ex-4.16, 6-chloro-N-[5-chloro-1-(cyclopropylmethyl)-1H-pyrazol-4-yl]-7-[1-(oxetan-3-yl)piperidin-4-yl]quinazolin-2-amine] | >9.20
25 | Clc1cc2cnc(Nc3cnn(C4COC4)c3Cl)nc2cc1C1CCN(C2COC2)CC1 [Ex-4.17, 6-chloro-N-[5-chloro-1-(oxetan-3-yl)-1H-pyrazol-4-yl]-7-[1-(oxetan-3-yl)piperidin-4-yl]quinazolin-2-amine] | >9.20
26 | FC(F)n1cc(Nc2ncc3cc(Cl)c(C4CCN(C5COC5)CC4)cc3n2)cn1 [Ex-4.18, 6-chloro-N-[1-(difluoromethyl)-1H-pyrazol-4-yl]-7-[1-(oxetan-3-yl)piperidin-4-yl]quinazolin-2-amine] | 9.16
27 | Clc1cc2cnc(Nc3cnn(CC4CCC4)c3Cl)nc2cc1C1CCN(C2COC2)CC1 [Ex-4.19, 6-chloro-N-[5-chloro-1-(cyclobutylmethyl)-1H-pyrazol-4-yl]-7-[1-(oxetan-3-yl)piperidin-4-yl]quinazolin-2-amine] | 9.17
28 | CC1(CN2CCC(c3cc4nc(Nc5cnn(C6CC6)c5Cl)ncc4cc3Cl)CC2)COC1 [Ex-4.20, 6-chloro-N-(5-chloro-1-cyclopropyl-1H-pyrazol-4-yl)-7-{1-[(3-methyloxetan-3-yl)methyl]piperidin-4-yl}quinazolin-2-amine] | 8.11

Same assay, conditions: G2019S LRRK2, 134 μM ATP (Km ATP), mean values; read-out: LRRK2 pIC50 (converted)

Row | Compound | IC50
29 | CC1(N2CCC(c3cc4nc(Nc5cnn(C67CC(C6)C7)c5)ncc4cc3Cl)CC2)COC1 [Ex-2.18, N-(1-(bicyclo[1.1.1]pentan-1-yl)-1H-pyrazol-4-yl)-6-chloro-7-(1-(3-methyloxetan-3-yl)piperidin-4-yl)quinazolin-2-amine] | < 0.631 nM
30 | Cc1c(Nc2ncc3cc(Cl)c(C4CCN(C5COC5)CC4)cc3n2)cnn1C12CC(C1)C2 [Ex-2.21, N-[1-(bicyclo[1.1.1]pentan-1-yl)-5-methyl-1H-pyrazol-4-yl]-6-chloro-7-[1-(oxetan-3-yl)piperidin-4-yl]quinazolin-2-amine] | 0.676 nM
31 | COCC12CC(n3ncc(Nc4ncc5cc(Cl)c(C6CCN(C7(C)COC7)CC6)cc5n4)c3C)(C1)C2 [Ex-2.32, 6-chloro-N-{1-[3-(methoxymethyl)bicyclo[1.1.1]pentan-1-yl]-5-methyl-1H-pyrazol-4-yl}-7-[1-(3-methyloxetan-3-yl)piperidin-4-yl] quinazolin-2-amine] | < 0.631 nM

— patent US12540131B2 (Merck Sharp & Dohme LLC, priority 2019, dated 2026)
